Experimental data as given in US11059823B2, “Small molecule inhibitors of the JAK family of kinases” (Janssen Pharmaceutica NV, priority 2016, dated 2021).

Legend:
physchem = details: thermodynamic from solid
P-gp (MDR1) = assay: MDCK-MDR1 permeability assay; format: in vitro ADME; details: dog
Procedure: Permeability measurements were conducted according to the Cyprotex protocol using the MDCK-MDR1 cell line obtained from the NIH (Rockville, Md., USA). […] The cells in this assay form a cohesive sheet of a single cell layer filing the surface area of the culture dish, also known as a confluent monolayer, and on day four the test compound was added to the apical side of the membrane and the transport of the compound across the monolayer was monitored over a time period of 60 min.
Test compounds were dissolved in DMSO at a concentration of 10 mM. The dosing solutions were prepared by diluting test compound with assay buffer (Hanks Balanced Salt Solution), pH 7.4, at a final concentration of 5 μM. For assessment of apical to basolateral (“A-B”) permeability, buffer was removed from the apical compartment and replaced with test compound dosing solution with or without the permeability glycoprotein (“PgP”, “P-gP”, “Pgp” or “P-gp”) inhibitor elacridar (2 μM). For assessment of basolateral to apical (“B-A”) permeability, buffer was removed from the companion plate and replaced with test compound dosing solution. Incubations were carried out in duplicate at 37° C. in an atmosphere of 5% CO2 with a relative humidity of 95%. Each assay included the reference markers propranolol (high permeability) and prazosin (PgP substrate). After incubation for 60 minutes, apical and basolateral samples were diluted and test compounds quantified by LC/MS/MS using an 8-point calibration in the range 0.0039 to 3 μM with appropriate dilution of the samples (receiver dilution factor=1; donor and Co dilution factor=10). The permeability coefficient (Papp) for each compound was calculated from the following equation: Papp=(dQ/dt)/(C0×S), where dQ/dt is the rate of permeation of the drug across the cells, C0 is the donor compartment concentration at time zero, and S is the area of the cell monolayer.
Papp(A-B) gives an indication of permeation extent across the cells in this assay, which is envisaged to model the transcellular transport across Pgp-expressing cells, such as Pgp-expressing gastrointestinal tract cells.

JAK3-JH1JH2 = JAK3-JH1JH2 (Homo sapiens (Human), UniProt P52333); assay: Enzymatic inhibition assay (HTMS), JAK3; format: biochemical; details: 150 μM ATP; read-out: JAK3_I_JH1JH2 IC50
Description: JAK1-JH1JH2 (574-1154 with a His-GST Tag and a C-terminal tev (ENLYFQ-G) cleavage site), JAK3-JH1JH2 (512-1124 with a GST Tag and a C-terminal tev (ENLYFQ-G) cleavage site), and Tyk2-JH1JH2 (8H_tev_580-1182-C936A-C1142A with a C-terminal tev (ENLYFQ-G) cleavage site) were purified internally. […] LC/MS grade water and acetonitrile (ACN), were purchased from HoneyWell, Burdick & Jackson (Muskegon, Mich., USA). Dimethylsulfoxide 99.8% (DMSO) and trifluoroacetic acid 99.5% (TFA) were purchased from EMD Chemical (Gibbstown, N.J., USA). Adenosine triphosphate (ATP), 4-morpholinepropanesulfonic acid (MOPS), magnesium chloride (MgCl2), ethylenediaminetetraacetic acid (EDTA), dithiothreitol (DTT), formic acid >95% (FA) and Tween-20 were purchased from Sigma (St Louis, Mo., USA). 384-well polypropylene plates, Cat#781280 were purchased from Greiner (Monroe, N.C.), RapidFire™ cartridge A C4 Column (Agilent Technologies, Santa Clara, Calif.). […]
11-point dosing series were made for each compound by serially diluting 1:3 or 1:4 in DMSO, with point 12 being a DMSO control. […] Compound inhibition was assessed by a decrease of the phosphorylated product levels in sample wells compared to the non-inhibited enzyme reaction. […]

Sequence of JAK3-JH1JH2 (P52333 512-1124): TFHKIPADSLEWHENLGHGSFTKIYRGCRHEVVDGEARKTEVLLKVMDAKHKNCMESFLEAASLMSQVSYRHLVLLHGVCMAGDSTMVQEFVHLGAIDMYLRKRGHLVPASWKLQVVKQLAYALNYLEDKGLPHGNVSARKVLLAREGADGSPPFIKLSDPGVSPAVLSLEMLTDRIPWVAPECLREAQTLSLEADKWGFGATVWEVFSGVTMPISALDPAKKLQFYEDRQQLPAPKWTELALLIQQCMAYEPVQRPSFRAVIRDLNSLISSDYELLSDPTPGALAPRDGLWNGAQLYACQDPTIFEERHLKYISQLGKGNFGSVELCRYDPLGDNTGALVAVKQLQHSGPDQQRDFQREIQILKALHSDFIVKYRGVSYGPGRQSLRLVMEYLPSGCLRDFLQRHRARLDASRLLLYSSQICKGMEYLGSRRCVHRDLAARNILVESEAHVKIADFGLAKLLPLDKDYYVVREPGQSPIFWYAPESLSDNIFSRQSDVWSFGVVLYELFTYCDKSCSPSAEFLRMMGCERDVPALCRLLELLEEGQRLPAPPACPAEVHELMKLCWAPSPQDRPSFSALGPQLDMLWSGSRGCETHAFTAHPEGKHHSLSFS

In the case of `N#CC[C@H]1CC[C@H](n2c(-c3c[nH]cn3)nc3cnc4[nH]ccc4c32)CC1` [Ex. 2, 2-((1r,4r)-4-(2-(1H-Imidazol-4-yl)imidazo[4,5-d]pyrrolo[2,3-b]pyridin-1(6H)-yl)cyclohexyl)acetonitrile], the solubility (physchem; pH 6.5, fassif) is reported as over 400 µM, the solubility (physchem; simulated gastric fluid) is reported as over 400 µM and the Papp A→B at 60 min, 5 µM (P-gp (MDR1); MDCK-MDR1, pH 7.4, apical-to-basolateral, without elacridar, 5 μM, 60 min) is reported as 1.1 ×10⁻⁶ cm/s. The Papp B→A at 60 min, 5 µM (P-gp (MDR1); MDCK-MDR1, pH 7.4, basolateral-to-apical, 5 μM, 60 min) was 4.8 ×10⁻⁶ cm/s, the efflux ratio at 60 min, 5 µM (P-gp (MDR1); pH 7.4, MDCK-MDR1, 5 μM, read-out: Papp(B-A)/Papp(A-B) (efflux ratio)) was 4.4 and the IC50 (JAK3-JH1JH2) was 33.9 nM.
